± gives the standard deviation of the averaged measurements.
System: HT1080
Assay: relative viability vs DMSO control (72 h) (fraction); higher = more viable cells
Method in brief: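 Percent growth from ATPLite readings, averaged over up to triplicate wells, was used as relative viability. Sarcoma cell lines were seeded into 384-well plates for 80–90% confluence, dosed after 24 h, and kept 72 h at 37 °C, 5% CO2. Data were rescaled to a range where 1 is full and 0 is none.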

| SMILES | relative viability (0.00017 µM) | relative viability (0.00051 µM) | relative viability (0.00152 µM) | relative viability (0.00457 µM) | relative viability (0.01372 µM) | relative viability (0.04115 µM) | relative viability (0.1235 µM) | relative viability (0.3704 µM) | relative viability (1.111 µM) | relative viability (3.333 µM) | relative viability (10 µM) |
| --- | --- | --- | --- | --- | --- | --- | --- | --- | --- | --- | --- |
| CO[C@H]1C[C@@H]2CC[C@@H](C)[C@@](O)(O2)C(=O)C(=O)N2CCCC[C@H]2C(=O)O[C@H]([C@H](C)C[C@@H]2CC[C@@H](OP(C)(C)=O)[C@H](OC)C2)CC(=O)[C@H](C)/C=C(\C)[C@@H](O)[C@@H](OC)C(=O)[C@H](C)C[C@H](C)/C=C/C=C/C=C/1C [Ridaforolimus] | 1.1 ± 0.019 | 1.08 ± 0.02 | 1.13 ± 0.047 | 1.08 ± 0.03 | 1.03 ± 0.011 | 0.99 ± 0.028 | 0.983 ± 0.034 | 0.9952 ± 0.0077 | 0.9672 ± 0.0023 | 0.9615 ± 0.0033 | 0.934 ± 0.028 |
| O=C(Cc1ccc(-c2ccc(OCCN3CCOCC3)cc2)cn1)NCc1ccccc1 [KX2-391] | 1.07 ± 0.025 | 1.1 ± 0.013 | 1.11 ± 0.019 | 1.1 ± 0.033 | 1.06 ± 0.013 | 1.06 ± 0.022 | 0.117 ± 0.0064 | 0.0565 ± 0.0006 | 0.0434 ± 0.0068 | 0.0333 ± 0.0026 | 0.0365 ± 0.0027 |
| COc1cc2nccc(Oc3ccc(NC(=O)Nc4cc(C)on4)c(Cl)c3)c2cc1OC [Tivozanib] | 1.04 ± 0.027 | 1.06 ± 0.021 | 1.06 ± 0.032 | 1.07 ± 0.026 | 1.046 ± 0.01 | 1.06 ± 0.02 | 1.05 ± 0.019 | 1.07 ± 0.02 | 1.1 ± 0.04 | 1.12 ± 0.015 | 0.967 ± 0.021 |
| CCc1cc2c(cc1N1CCC(N3CCOCC3)CC1)C(C)(C)c1[nH]c3cc(C#N)ccc3c1C2=O [Alectinib] | 1.07 ± 0.018 | 1.09 ± 0.0051 | 1.06 ± 0.032 | 1.09 ± 0.014 | 1.077 ± 0.0047 | 1.11 ± 0.045 | 1.08 ± 0.02 | 1.11 ± 0.028 | 1.07 ± 0.024 | 1.07 ± 0.047 | 1.02 ± 0.051 |
| COCc1c(-c2cc3cc(C)cc(OC)c3s2)c2c(N)ncnn2c1CN1CCNC(=O)C1 [Rogaratinib] | 1.08 ± 0.023 | 1.09 ± 0.041 | 1.07 ± 0.028 | 1.038 ± 0.0047 | 1.05 ± 0.013 | 1.06 ± 0.017 | 1.05 ± 0.017 | 1.07 ± 0.04 | 1.084 ± 0.0066 | 1.09 ± 0.024 | 1.06 ± 0.032 |
| CN1CCC(COc2cnc(-c3cccc(Cn4nc(-c5cccc(C#N)c5)ccc4=O)c3)nc2)CC1 [Tepotinib] | 1.1 ± 0.066 | 1.09 ± 0.025 | 1.12 ± 0.013 | 1.081 ± 0.0059 | 1.092 ± 0.0041 | 1.07 ± 0.016 | 1.07 ± 0.043 | 1.07 ± 0.059 | 1.04 ± 0.034 | 1.032 ± 0.0023 | 0.8618 ± 0.0058 |
| Cc1cnc(Nc2ccc(OCCN3CCCC3)cc2)nc1Nc1cccc(S(=O)(=O)NC(C)(C)C)c1 [Fedratinib] | 1.11 ± 0.027 | 1.03 ± 0.056 | 1.08 ± 0.0082 | 1.06 ± 0.032 | 1.07 ± 0.044 | 1.05 ± 0.044 | 1.04 ± 0.009 | 1.03 ± 0.022 | 0.813 ± 0.015 | 0.391 ± 0.014 | 0.0298 ± 0.0037 |
| Cn1cnc2c(F)c(Nc3ccc(Br)cc3F)c(C(=O)NOCCO)cc21 [Binimetinib] | 1.1 ± 0.019 | 1.09 ± 0.031 | 1.09 ± 0.021 | 1.03 ± 0.026 | 1.031 ± 0.0075 | 0.8738 ± 0.0029 | 0.752 ± 0.017 | 0.626 ± 0.015 | 0.577 ± 0.026 | 0.518 ± 0.034 | 0.451 ± 0.032 |
| C[C@@H]1CCN(C(=O)CC#N)C[C@@H]1N(C)c1ncnc2[nH]ccc12 [Tofacitinib] | 1.06 ± 0.044 | 1.1 ± 0.035 | 1.07 ± 0.025 | 1.077 ± 0.0086 | 1.1 ± 0.022 | 1.08 ± 0.018 | 1.08 ± 0.085 | 1.1 ± 0.04 | 1.07 ± 0.012 | 1.03 ± 0.027 | 1.02 ± 0.024 |
| Nc1cc(C(F)(F)F)c(-c2cc(N3CCOCC3)nc(N3CCOCC3)n2)cn1 [Buparlisib] | 1.01 ± 0.077 | 1.02 ± 0.024 | 1.018 ± 0.0073 | 1.05 ± 0.036 | 1.04 ± 0.015 | 1.03 ± 0.022 | 1.03 ± 0.039 | 1.07 ± 0.013 | 1 ± 0.013 | 0.11 ± 0.0037 | 0.0244 ± 0.0015 |
| Cn1cc(-c2cc3c(N4CCN(c5ncc([C@@](C)(N)c6ccc(F)cc6)cn5)CC4)ncnn3c2)cn1 [Avapritinib] | 0.967 ± 0.065 | 1.03 ± 0.019 | 0.98 ± 0.042 | 1.01 ± 0.041 | 1 ± 0.017 | 1.01 ± 0.039 | 1.03 ± 0.048 | 1.01 ± 0.013 | 0.908 ± 0.029 | 0.905 ± 0.014 | 0.826 ± 0.023 |
| C=CC(=O)N1CCC([C@@H]2CCNc3c(C(N)=O)c(-c4ccc(Oc5ccccc5)cc4)nn32)CC1 [Zanubrutinib] | 1.04 ± 0.022 | 1.05 ± 0.022 | 1.04 ± 0.04 | 1.03 ± 0.024 | 1.03 ± 0.026 | 1.03 ± 0.031 | 1.03 ± 0.028 | 1.05 ± 0.071 | 1.017 ± 0.0087 | 1.02 ± 0.033 | 1.02 ± 0.026 |
| CCCS(=O)(=O)Nc1ccc(F)c(C(=O)c2c[nH]c3ncc(-c4ccc(Cl)cc4)cc23)c1F [Vemurafenib] | 1.1 ± 0.032 | 1.07 ± 0.049 | 1.09 ± 0.05 | 1.08 ± 0.031 | 1.08 ± 0.044 | 1.07 ± 0.045 | 1.07 ± 0.043 | 1.08 ± 0.04 | 1.13 ± 0.031 | 1.04 ± 0.023 | 0.663 ± 0.25 |
| COc1cc2c(Oc3ccc4[nH]c(C)cc4c3F)ncnc2cc1OCCCN1CCCC1 [Cediranib] | 1.08 ± 0.022 | 1.08 ± 0.015 | 1.06 ± 0.011 | 1.095 ± 0.0091 | 1.1 ± 0.011 | 1.07 ± 0.031 | 1.08 ± 0.016 | 1.1 ± 0.015 | 1.1 ± 0.027 | 1.08 ± 0.035 | 1.06 ± 0.024 |
| CC[C@H](Nc1ncnc2[nH]cnc12)c1nc2cccc(F)c2c(=O)n1-c1ccccc1 [Idelalisib] | 1.1 ± 0.032 | 1.1 ± 0.025 | 1.07 ± 0.017 | 1.12 ± 0.039 | 1.0913 ± 0.00051 | 1.12 ± 0.021 | 1.09 ± 0.038 | 1.12 ± 0.051 | 1.07 ± 0.027 | 1.08 ± 0.014 | 1.08 ± 0.04 |
| Cc1cc(Nc2ncnc3ccc(NC4=NC(C)(C)CO4)cc23)ccc1Oc1ccn2ncnc2c1 [Tucatinib] | 1.06 ± 0.043 | 1.071 ± 0.0057 | 1.108 ± 0.0063 | 1.09 ± 0.054 | 1.1 ± 0.027 | 1.0875 ± 7.1e-05 | 1.08 ± 0.032 | 1.067 ± 0.01 | 1.05 ± 0.011 | 1.06 ± 0.026 | 0.948 ± 0.012 |
| N#CC[C@H](C1CCCC1)n1cc(-c2ncnc3[nH]ccc23)cn1 [Ruxolitinib] | 1.04 ± 0.037 | 1.034 ± 0.0099 | 1.07 ± 0.012 | 1.05 ± 0.068 | 1.06 ± 0.049 | 1.03 ± 0.017 | 1.05 ± 0.027 | 1.04 ± 0.04 | 1.04 ± 0.021 | 1.04 ± 0.035 | 1.02 ± 0.087 |
| Cc1ccc(F)c(NC(=O)Nc2ccc(-c3cccc4[nH]nc(N)c34)cc2)c1 [Linifanib] | 1.08 ± 0.022 | 1.08 ± 0.026 | 1.07 ± 0.017 | 1.033 ± 0.0064 | 1.06 ± 0.02 | 1.07 ± 0.037 | 1.048 ± 0.0077 | 1.08 ± 0.0094 | 1.08 ± 0.031 | 1.08 ± 0.03 | 1.05 ± 0.015 |
| Cc1nc(NC(=O)N2CCC[C@H]2C(N)=O)sc1-c1ccnc(C(C)(C)C(F)(F)F)c1 [Alpelisib] | 1.06 ± 0.032 | 1.05 ± 0.027 | 1.05 ± 0.022 | 1.08 ± 0.031 | 1.01 ± 0.014 | 1.04 ± 0.018 | 1 ± 0.023 | 1.02 ± 0.037 | 0.994 ± 0.03 | 0.977 ± 0.034 | 0.889 ± 0.016 |
